Measurements: patent publication US20200061062A1, “INHIBITORS OF HUMAN PHOSPHATIDYLINOSITOL 3-KINASE DELTA” (ICOS Corporation, priority 2000, published 2020)

Assays:
PI3Kβ [1] = molecular target: T1, PI3Kβ (Homo sapiens, UniProt P42338); assay: Biochemical assay using 200 μM ATP, Beta
T1 construct: His tag (pFastbac HTa vector) (N); FLAG (N); made in house; host or cells: Sf21 insect cells (baculovirus)

PI3Kγ [2] = molecular target: T2, PI3Kγ (Homo sapiens, UniProt P48736); assay: Biochemical assay of PI3K potency and selectivity using 20 μM ATP, Gamma; settings: for Gamma/Delta Ratio: ratio of IC50 values
T2 construct: His tag (pFastbac HTb vector) (N); FLAG (N); made in house; host or cells: Sf21 insect cells (baculovirus)
From the text: Recombinant baculoviruses containing the above clones were generated using manufacturer's recommended protocol (Life Technologies). Baculoviruses expressing His-tagged p110α, p110γ, or p110δ catalytic subunit and p85 subunit were coinfected into Sf21 insect cells. To enrich the heterodimeric enzyme complex, an excess amount of baculovirus expressing p85 subunit was infected, and the His-tagged p110 catalytic subunit complexed with p85 was purified on nickel affinity column. […] In an alternate approach, p101 can be cloned into baculovirus, to permit coexpression with its preferred binding partner p110γ. […]

[3] = test system: Murine splenocytes (Balb/c); assay: B cell proliferation in response to cell surface IgM stimulation; type: cell-based; settings: Mus musculus, Splenocyte; stimulated B cell proliferation; read-out: Mouse BCR Stim (EC50)
Procedure: In the above experiment, the B cells were stimulated using PANSORBIN®. The effect of D-000 on B cell proliferation response when they were stimulated through their cell surface IgM using anti-IgM antibody also was measured. Murine splenocytes (Balb/c) were plated into 96-well microtiter plates at 2×10^5 cells per well in 10% FBS/RPMI. Appropriate dilutions of test inhibitor in complete medium were added to the cells and the plates were incubated for 30-60 minutes prior to the addition of stimulus. Following the preincubation with test inhibitor an F(ab′)2 preparation of goat antibody specific for the μ-chain of mouse IgM was added to the wells at a final concentration of 25 μg/mL. The plates were incubated at 37° C. for 3 days and 1 μCi of [^3H]-thymidine was added to each well for the final four hours of culture. The plates were harvested onto fiber filters washed and the incorporation of radiolabel was determined using a beta counter (Matrix 96, Packard Instrument Co., Downers Grove, Ill.) and expressed as counts per minute (CPM).
(§1) Using the methods described in Examples 3-5, above, compounds of the invention were tested for inhibitory activity and potency in assays of stimulated B and T cell proliferation, neutrophil (PMN) migration, and neutrophil (PMN) elastase release. In Table 4, the values shown are effective concentrations of the compound (EC50; μM). Where no value is given, no assay was performed.

human neutrophils = assay: Elastase exocytosis from neutrophils (fMLP-induced); type: cell-based; settings: neutrophil (PMN) elastase release
Procedure: Aliquots (8 mL) of heparinized blood from healthy volunteers were layered on 3 mL cushions of 7.3% FICOLL® (Sigma, St. Louis, Mo.) and 15.4% HYPAQUE® (Sigma) and centrifuged at 900 rpm for 30 min at room temperature in a table top centrifuge (Beckman). The neutrophil-rich band just above the FICOLL®-HYPAQUE® cushion was collected and washed with Hanks' balanced salt solution (HBSS) containing 0.1% gelatin. Residual erythrocytes were removed by hypotonic lysis with 0.2% NaCl. The neutrophil preparation was washed twice with HBSS containing 0.1% gelatin and used immediately.
In addition to superoxide generation, activated neutrophils also respond by releasing several proteases that are responsible for the destruction of tissues and cartilage during inflammation. As an indication of protease release, the effect of D-000 on elastase exocytosis was measured. Elastase exocytosis was quantitated by modification of the procedure described by Ossanna et al. (J Clin Invest, 77:1939-1951 (1986)), as follows. Purified human neutrophils (0.2×10^6) (treated with either DMSO or a serial dilution of D-000 in DMSO) were stimulated with fMLP in PBS containing 0.01 mg/mL cytochalasin B, 1.0 μM sodium azide (NaN3), 5 μg/mL L-methionine and 1 μM fMLP for 90 min at 37° C. in a 96-well plate. At the end of the incubation period, the plate was centrifuged for 5 min at 1000 rpm, and 90 μL of the supernatant was transferred to 10 μL of 10 mM solution of an elastase substrate peptide, MeO-suc-Ala-Ala-Pro-Val-pNA, wherein MeO-suc=methoxy-succinyl; pNA=p-nitroanilide (Calbiochem, San Diego, Calif.). Absorbance at 410 nm was monitored for 2 hr in a 96-well plate reader. To measure the relative amounts of elastase excytosed, all absorbance values were normalized to the values without any inhibitor. […] Inhibition was half-maximal at a concentration of about 2-3 μM D-000.
as §1

PI3Kδ [4] = molecular target: T3, PI3Kδ (Homo sapiens, UniProt O00329, S253N); assay: Biochemical assay using 200 μM ATP, Delta;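 also: radiometric filter-binding assay: PI3Kδ transfers ³²P from γ-[³²P]ATP onto PIP2/PS liposomes, counted by scintillation, enzyme-only wells as positive control, no-enzyme wells as background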
PI3Kα [5] = molecular target: T4, PI3Kα (Homo sapiens, UniProt P42336); assay: Biochemical assay using 200 μM ATP, Alpha
T4 construct: His tag (pFastbac HTb vector) (N); FLAG; made in house; host or cells: Sf21 insect cells (baculovirus)

PI3Kγ [6] = molecular target: T2, PI3Kγ; assay: Biochemical assay using 200 μM ATP, Gamma
Procedure: PI3Kδ catalyzes a phosphotransfer from γ-[^32P]ATP to PIP2/PS liposomes at the D3′ position of the PIP2 lipid inositol ring. This reaction is MgCl2 dependent and is quenched in high molarity potassium phosphate buffer pH 8.0 containing 30 mM EDTA. […] The reaction products (and all unlabelled products) are transferred to a 96-well, prewetted PVDF filter plate, filtered, and washed in high molarity potassium phosphate. Scintillant is added to the dried wells and the incorporated radioactivity is quantitated.
This dilution established a final concentration of 200 μM ATP in the reaction volume. The reaction was stopped with 150 μL quench buffer (1.0 M potassium phosphate pH 8.0, 30 mM EDTA). A portion of the quenched solution (180 μL) was then transferred to a PVDF filter plate (Millipore # MAIP NOB prewetted with sequential 200 μL washes of 100% methanol, water, and finally 1.0 M potassium phosphate pH 8.0 wash buffer).
The PVDF filter plate was aspirated under moderate vacuum (2-5 mm Hg), washed with 5×200 μL of wash buffer, and then dried by aspiration. The filter was subsequently blotted, allowed to air dry completely, and inserted into a Wallac counting cassette with 50 μL of Ecoscint scintillation cocktail added per well.
Subsequent selectivity assays were done similarly using the same 3× substrate stocks except they contained 0.05 mCi/mL γ[^32P]ATP and 3 mM PIP2. Subsequent selectivity assays also used the same 3× enzyme stocks, except they now contained 3 nM of any given PI3K isoform.
For all selectivity assays, the test compounds were weighed out and dissolved into 10-50 mM stocks in 100% DMSO (depending on their respective solubilities) and stored at −20° C. […] From these dilutions, 20 μL was added into the assay wells alongside water blanks used for the enzyme (positive) control and the no enzyme (background) control.
This selectivity protocol is identical to that described above, except the 3× stock ATP concentration was 600 μM.

PI3Kδ [7] = molecular target: T3, PI3Kδ; assay: Biochemical assay of PI3K potency and selectivity using 20 μM ATP, Delta; design: His tag (pFastbac HTb vector) (N); FLAG; made in house; host or cells: Sf21 insect cells (baculovirus); settings: 20 μM ATP; read-out: Delta IC50
From the text: (§2) Recombinant PI3K heterodimeric complexes consisting of a p110 catalytic subunit and a p85 regulatory subunit were overexpressed using the BAC-TO-BAC® HT baculovirus expression system (GIBCO/BRL), and then purified for use in biochemical assays. The four Class I PI 3-kinases were cloned into baculovirus vectors as follows: […]

PI3Kα [8] = molecular target: T4, PI3Kα; assay: Biochemical assay of PI3K potency and selectivity using 20 μM ATP, Alpha; settings: for Alpha/Delta Ratio: ratio of IC50 values, > = hypothetical ratio with 100 μM substituted for the missing IC50; for remaining activity at 100 µM: read-out: percent activity remaining at 100 μM, 20 μM ATP, 100 μM compound did not inhibit by at least 50%
From the text: as §2

PI3Kβ [9] = molecular target: T1, PI3Kβ; assay: Biochemical assay of PI3K potency and selectivity using 20 μM ATP, Beta; settings: 20 μM ATP; for Beta/Delta Ratio: ratio of IC50 values, > = hypothetical ratio with 100 μM substituted for the missing IC50; for IC50: read-out: Beta IC50
Procedure: Recombinant PI3K heterodimeric complexes consisting of a p110 catalytic subunit and a p85 regulatory subunit were overexpressed using the BAC-TO-BAC® HT baculovirus expression system (GIBCO/BRL), and then purified for use in biochemical assays. The four Class I PI 3-kinases were cloned into baculovirus vectors as follows:
The 3× substrate for the HTS contained 0.6 mM Na2ATP, 0.10 mCi/mL γ-[^32P]ATP (NEN, Pittsburgh, Pa.), 6 μM PIP2/PS liposomes (Avanti Polar Lipids, Inc., […].), in 20 mM HEPES, pH 7.4.

T1 sequence (P42338 whole entry): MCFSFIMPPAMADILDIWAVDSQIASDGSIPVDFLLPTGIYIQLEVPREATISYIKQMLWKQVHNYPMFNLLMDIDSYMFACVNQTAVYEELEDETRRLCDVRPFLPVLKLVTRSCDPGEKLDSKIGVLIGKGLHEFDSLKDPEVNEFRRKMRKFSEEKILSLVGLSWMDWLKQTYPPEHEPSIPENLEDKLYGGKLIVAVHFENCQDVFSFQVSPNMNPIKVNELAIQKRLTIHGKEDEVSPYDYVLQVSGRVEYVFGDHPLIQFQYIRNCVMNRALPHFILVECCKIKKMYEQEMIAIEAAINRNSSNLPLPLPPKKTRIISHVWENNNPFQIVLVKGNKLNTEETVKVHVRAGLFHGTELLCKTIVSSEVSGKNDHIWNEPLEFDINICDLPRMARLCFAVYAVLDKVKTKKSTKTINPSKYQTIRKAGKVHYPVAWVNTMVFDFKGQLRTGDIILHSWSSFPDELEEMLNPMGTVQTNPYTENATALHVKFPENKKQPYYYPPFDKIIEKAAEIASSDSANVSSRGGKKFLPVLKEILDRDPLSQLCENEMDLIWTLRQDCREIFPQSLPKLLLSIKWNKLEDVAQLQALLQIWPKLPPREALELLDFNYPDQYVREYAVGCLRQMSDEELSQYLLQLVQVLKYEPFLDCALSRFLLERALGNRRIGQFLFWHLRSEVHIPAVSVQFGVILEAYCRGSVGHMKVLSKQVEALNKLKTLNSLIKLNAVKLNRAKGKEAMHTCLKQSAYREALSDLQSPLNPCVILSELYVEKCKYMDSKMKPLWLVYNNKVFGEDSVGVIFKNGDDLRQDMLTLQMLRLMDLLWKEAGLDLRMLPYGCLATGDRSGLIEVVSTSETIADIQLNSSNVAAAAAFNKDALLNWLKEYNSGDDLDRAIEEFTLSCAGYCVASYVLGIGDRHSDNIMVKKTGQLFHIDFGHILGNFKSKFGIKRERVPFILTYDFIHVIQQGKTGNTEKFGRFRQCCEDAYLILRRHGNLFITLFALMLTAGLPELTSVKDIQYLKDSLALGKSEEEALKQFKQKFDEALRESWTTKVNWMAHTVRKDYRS
T1 sequence (P27986 whole entry partner): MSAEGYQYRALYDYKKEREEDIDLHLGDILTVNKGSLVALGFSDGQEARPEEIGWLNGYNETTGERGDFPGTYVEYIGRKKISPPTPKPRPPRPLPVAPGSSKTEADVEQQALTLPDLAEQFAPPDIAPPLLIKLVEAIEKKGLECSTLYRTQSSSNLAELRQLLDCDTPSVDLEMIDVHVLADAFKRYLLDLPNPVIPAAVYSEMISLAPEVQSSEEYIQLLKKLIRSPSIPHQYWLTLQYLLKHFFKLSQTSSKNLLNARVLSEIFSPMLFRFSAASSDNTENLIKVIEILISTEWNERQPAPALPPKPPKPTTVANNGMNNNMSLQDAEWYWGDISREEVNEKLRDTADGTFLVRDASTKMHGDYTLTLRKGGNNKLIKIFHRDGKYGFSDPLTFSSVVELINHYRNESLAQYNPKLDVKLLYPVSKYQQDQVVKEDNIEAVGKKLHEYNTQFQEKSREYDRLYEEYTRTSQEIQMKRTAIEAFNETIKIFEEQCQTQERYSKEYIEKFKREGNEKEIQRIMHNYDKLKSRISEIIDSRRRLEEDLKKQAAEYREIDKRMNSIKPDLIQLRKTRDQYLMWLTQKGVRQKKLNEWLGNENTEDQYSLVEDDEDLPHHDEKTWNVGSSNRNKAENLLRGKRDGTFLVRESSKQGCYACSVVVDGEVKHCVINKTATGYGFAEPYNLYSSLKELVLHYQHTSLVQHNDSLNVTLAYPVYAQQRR
T3 sequence (O00329 whole entry S253N): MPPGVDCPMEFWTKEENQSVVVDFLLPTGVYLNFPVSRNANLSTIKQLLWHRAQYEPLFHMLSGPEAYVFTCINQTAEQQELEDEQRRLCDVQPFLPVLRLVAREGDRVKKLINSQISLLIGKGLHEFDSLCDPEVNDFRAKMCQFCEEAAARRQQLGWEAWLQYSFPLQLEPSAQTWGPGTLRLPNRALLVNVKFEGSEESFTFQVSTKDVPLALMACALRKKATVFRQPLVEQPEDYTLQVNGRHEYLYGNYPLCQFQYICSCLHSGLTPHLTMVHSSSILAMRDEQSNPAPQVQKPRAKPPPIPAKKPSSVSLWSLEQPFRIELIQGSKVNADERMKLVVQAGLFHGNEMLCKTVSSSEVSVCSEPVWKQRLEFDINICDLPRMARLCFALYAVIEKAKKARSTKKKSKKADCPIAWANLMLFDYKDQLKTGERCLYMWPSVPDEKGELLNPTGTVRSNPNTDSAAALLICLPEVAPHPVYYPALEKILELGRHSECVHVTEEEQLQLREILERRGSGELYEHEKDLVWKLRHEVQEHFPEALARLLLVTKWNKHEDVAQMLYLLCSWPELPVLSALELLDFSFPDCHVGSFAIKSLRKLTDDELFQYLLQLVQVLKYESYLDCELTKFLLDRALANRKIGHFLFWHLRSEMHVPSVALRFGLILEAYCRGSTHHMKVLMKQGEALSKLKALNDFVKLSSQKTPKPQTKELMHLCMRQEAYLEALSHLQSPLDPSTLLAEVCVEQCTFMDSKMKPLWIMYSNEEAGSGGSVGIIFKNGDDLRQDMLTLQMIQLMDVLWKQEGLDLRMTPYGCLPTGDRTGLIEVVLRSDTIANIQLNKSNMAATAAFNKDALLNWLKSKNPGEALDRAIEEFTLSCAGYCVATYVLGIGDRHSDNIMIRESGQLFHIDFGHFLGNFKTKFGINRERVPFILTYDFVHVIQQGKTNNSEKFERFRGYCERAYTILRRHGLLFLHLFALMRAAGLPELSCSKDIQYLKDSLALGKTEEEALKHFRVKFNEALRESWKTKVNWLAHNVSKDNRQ
T3 sequence (P27986 whole entry partner): as the sequence (P27986 whole entry partner) above
T4 sequence (P42336 whole entry): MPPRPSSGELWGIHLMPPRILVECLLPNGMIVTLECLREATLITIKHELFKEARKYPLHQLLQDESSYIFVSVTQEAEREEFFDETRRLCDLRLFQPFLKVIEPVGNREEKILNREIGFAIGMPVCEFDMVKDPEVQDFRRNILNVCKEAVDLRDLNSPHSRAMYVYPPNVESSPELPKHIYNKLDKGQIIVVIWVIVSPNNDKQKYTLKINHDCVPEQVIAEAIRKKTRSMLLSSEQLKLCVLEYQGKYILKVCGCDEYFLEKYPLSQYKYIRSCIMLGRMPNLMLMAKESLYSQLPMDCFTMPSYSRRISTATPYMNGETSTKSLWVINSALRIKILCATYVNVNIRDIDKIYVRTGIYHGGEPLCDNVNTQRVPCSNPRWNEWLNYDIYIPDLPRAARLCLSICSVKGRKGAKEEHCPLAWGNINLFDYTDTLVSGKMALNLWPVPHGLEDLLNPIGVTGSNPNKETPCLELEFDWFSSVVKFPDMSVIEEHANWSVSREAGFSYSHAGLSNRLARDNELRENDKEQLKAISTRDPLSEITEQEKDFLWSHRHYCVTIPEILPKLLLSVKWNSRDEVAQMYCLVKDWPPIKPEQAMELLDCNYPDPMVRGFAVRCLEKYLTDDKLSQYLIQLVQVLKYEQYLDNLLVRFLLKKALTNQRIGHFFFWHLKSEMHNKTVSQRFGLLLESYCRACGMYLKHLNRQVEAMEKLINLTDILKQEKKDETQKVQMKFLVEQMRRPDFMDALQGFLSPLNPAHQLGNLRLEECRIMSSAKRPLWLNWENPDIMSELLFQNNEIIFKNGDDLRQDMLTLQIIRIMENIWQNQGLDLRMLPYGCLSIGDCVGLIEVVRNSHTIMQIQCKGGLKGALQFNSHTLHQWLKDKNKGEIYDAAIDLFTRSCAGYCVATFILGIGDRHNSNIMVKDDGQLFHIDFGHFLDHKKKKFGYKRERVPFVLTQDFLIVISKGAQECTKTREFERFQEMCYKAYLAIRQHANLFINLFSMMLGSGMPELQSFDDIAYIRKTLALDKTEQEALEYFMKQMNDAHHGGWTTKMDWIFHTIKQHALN
T4 sequence (P27986 whole entry partner): as the sequence (P27986 whole entry partner) above
T2 sequence (P48736 whole entry): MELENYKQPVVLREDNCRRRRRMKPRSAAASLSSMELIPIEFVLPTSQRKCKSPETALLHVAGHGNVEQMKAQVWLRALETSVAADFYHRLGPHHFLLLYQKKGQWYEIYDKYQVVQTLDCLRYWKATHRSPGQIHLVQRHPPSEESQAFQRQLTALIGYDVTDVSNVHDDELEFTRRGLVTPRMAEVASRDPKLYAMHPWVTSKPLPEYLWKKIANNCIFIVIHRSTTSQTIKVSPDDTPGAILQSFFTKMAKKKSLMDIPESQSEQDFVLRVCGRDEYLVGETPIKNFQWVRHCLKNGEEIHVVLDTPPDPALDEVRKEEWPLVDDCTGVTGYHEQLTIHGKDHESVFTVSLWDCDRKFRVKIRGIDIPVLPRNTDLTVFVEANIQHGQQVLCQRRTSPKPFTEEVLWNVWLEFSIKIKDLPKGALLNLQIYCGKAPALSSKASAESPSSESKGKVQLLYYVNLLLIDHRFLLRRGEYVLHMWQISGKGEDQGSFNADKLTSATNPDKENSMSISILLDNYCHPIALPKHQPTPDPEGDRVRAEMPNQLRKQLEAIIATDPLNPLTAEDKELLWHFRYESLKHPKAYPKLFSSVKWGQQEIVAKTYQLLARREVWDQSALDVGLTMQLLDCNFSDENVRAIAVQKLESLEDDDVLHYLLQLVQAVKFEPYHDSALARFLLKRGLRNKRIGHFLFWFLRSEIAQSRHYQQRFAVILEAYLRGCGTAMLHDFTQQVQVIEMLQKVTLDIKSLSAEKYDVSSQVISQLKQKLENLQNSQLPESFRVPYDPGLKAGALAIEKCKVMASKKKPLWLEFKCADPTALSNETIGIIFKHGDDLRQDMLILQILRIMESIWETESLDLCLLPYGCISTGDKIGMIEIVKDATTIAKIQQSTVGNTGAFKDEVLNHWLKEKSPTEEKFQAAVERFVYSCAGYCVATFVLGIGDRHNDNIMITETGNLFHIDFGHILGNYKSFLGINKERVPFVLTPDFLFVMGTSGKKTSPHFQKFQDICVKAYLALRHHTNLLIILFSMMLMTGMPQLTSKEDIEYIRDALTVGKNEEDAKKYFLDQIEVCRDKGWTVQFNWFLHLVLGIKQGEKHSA

SMILES	Beta/Delta Ratio (PI3Kβ [1])	IC50 (PI3Kβ [1]) [nM]	IC50 (PI3Kγ [2]) [nM]	Gamma/Delta Ratio (PI3Kγ [2])	EC50 [3] [nM]	EC50 (human neutrophils) [nM]	melting point	IC50 (PI3Kδ [4]) [nM]	Alpha/Delta Ratio (PI3Kα [5])	Gamma/Delta Ratio (PI3Kγ [6])	IC50 (PI3Kγ [6]) [nM]	IC50 (PI3Kδ [7]) [nM]	Alpha/Delta Ratio (PI3Kα [8]; 20 μM ATP)	remaining activity at 100 µM (PI3Kα [8]) [%]	Beta/Delta Ratio (PI3Kβ [9])	IC50 (PI3Kβ [9]) [nM]	IC50 (PI3Kα [8]; 20 μM ATP, read-out: Alpha IC50) [nM]
O=c1c2c(Cl)cccc2nc(CSc2ncnc3[nH]cnc23)n1-c1ccccc1F [Compound D-011, 5-Chloro-3-(2-fluorophenyl)-2-(9H-purin-6-ylsulfanylmethyl)-3H-quinazolin-4-one]	420	105000 ± 35000	1000	10	300 ± 100	900 ± 700	244 °C	250 ± 200	700	244	61000 ± 70000	100	>1,000	72	550	55000	–
O=c1c2c(Cl)cccc2nc(CSc2ncnc3[nH]cnc23)n1-c1ccccc1-c1ccccc1 [Compound D-013, 3-Biphenyl-2-yl-5-chloro-2-(9H-purin-6-ylsulfanylmethyl)-3H-quinazolin-4-one]	289	–	2100	42	1400	–	222 to 222.5 °C (dec.)	510 ± 600	461	24	12000 ± 1000	50	>2,000	71	260	13000	–
Nc1ncnc2c1ncn2Cc1nc2cccc(Cl)c2c(=O)n1-c1ccccc1-c1ccccc1 [Compound D-009, 2-(6-Aminopurin-9-ylmethyl)-3-biphenyl-2-yl-5-chloro-3H-quinazolin-4-one]	26	18000	–	–	300 ± 200	10500	299.9 to 300.1 °C	700	200	76	53000	120	683	–	50	5000	82000
O=c1c2cc(F)ccc2nc(CSc2ncnc3[nH]cnc23)n1-c1ccccc1Cl [Compound D-028, 3-(2-Chlorophenyl)-6-fluoro-2-(9H-purin-6-ylsulfanylmethyl)-3H-quinazolin-4-one]	101	–	–	–	400 ± 200	1000	232.8 to 233 °C	1600	125	18	29000	180	>556	67	69	13000	–
